Measurements published in patent US9623021B2, “Nuclear receptor binding agents” (GTX, Inc., priority 2007, dated 2017).
“Also recorded” adds a separate entry of the source.

How the values were obtained:
ovariectomized mice = assay: Ovariectomy-induced obesity model (postmenopausal obesity); format: in vivo, female C57BL6 mice; settings: OVX mice
Experimental: For the ovariectomy-induced obesity model, 6 week old female C57BL6 mice were sham operated or ovariectomized and the study was carried out for 9 weeks as indicated above.
Since it was shown that β-SERMs affected body composition in an animal model of high fat diet-induced obesity, they might also be effective in an animal model of postmenopausal obesity.

[1] = test system: high fat diet fed C57BL6 mice; assay: High fat diet induced obesity model, prevention studies (studies 1 and 2)
Experimental: Study A: C57BL6 male mice of 4 weeks of age were divided into different groups and were fed with a normal or high fat diet (Harlan, Ind.).
For the treatment study (study 3), the animals were maintained on the irrespective diets for 6 weeks and then treated daily as indicated for an additional 18 weeks. Biweekly body weights and food consumption were measured. The animals were sacrificed at the end of each study and blood and tissues were collected for RNA isolation, histology and protein estimation.
Cholesterol and leptin concentrations were measured in serum using ELISA-based methods.
Histology was performed on cryosections and stained with oil 0 red.
Oral glucose tolerance tests (OGTT) were performed on 16-h fasted mice. Mice were given 150 mg glucose by oral gavage through a gastric tube.
Six week old C57BL/6 mice were randomized, based on body weight, into three study groups as shown in the Study Parameters Table below.
The mice were treated for 12 weeks. Twice weekly, the body weight and feed consumption were measured.
A glucose tolerance test was also performed at the completion of the study by administering 150 mg glucose orally to the mice and measuring blood glucose levels at 0, 15, 30 and 60 minutes post glucose administration.
At sacrifice, the mice organ weights were measured and collected for histology, gene expression and protein expressions. Blood was collected for serum marker determination (cholesterol, glucose, leptin).
Dual energy X-ray absorptiometry (DEXA) was performed to measure the body composition in Study 1.
An MRI scan was performed at the beginning of the study, after 6 weeks and at the completion of the study.

[2] = test system: THP-1 macrophage cell adhesion to bEND-3 endothelial cells; assay: Macrophage adhesion assay (LPS induced THP-1 adhesion to bEND-3 endothelial cells); format: cell-based; settings: FIG. 13
Experimental: To determine the anti-inflammatory effects of ER-β NRBAs in vitro, a macrophage adhesion assay was performed. Macrophages adhere to endothelial cells due to elevated levels of pro-inflammatory cytokines. This principle was used in this assay to determine the effect of one of the ER-β NRBAs on bacterial lipopolysaccharide (LPS) induced THP-1 macrophage cell adhesion to bEND-3 endothelial cells.

SHP promoter = assay: SHP promoter-luciferase in HEK-293 cells transfected with FXR and ER-β; format: cell-based; settings: FXR and ER-β plasmids, FIG. 12E right panel
Experimental: FIG. 12 depict the effect of ER-β ligand on PPAR-γ function through ligand binding domain (LBD). (A). HEK-293 cells were transfected with 0.25 μg PPRE-LUC, 5 ng CMV-renilla LUC and the indicated receptors (PPAR-γ and ER-β for the left panel and PPAR-α and ER-β for the right panel). The cells were treated 24 hrs after transfection with the indicated ligands and harvested 48 hrs after transfection and firefly luciferase activity was measured and normalized to renilla luciferase. (B). H475 in ER-β LBD is important for its function. H475 in ER-β LBD was mutated to alanine (A) using a site directed mutagenesis kit. Transactivation assay was performed as described in panel A in HEK-293 cells with a titration of ER-β ligands in wild type or ER-β H475A. (C). […] HEK-293 cells were transfected with 0.25 μg PPRE-LUC, 5 ng CMV-renilla LUC and 50 ng of the indicated receptors (PPAR-γ or PPAR-γ and wild type ER-β or PPAR-γ and ER-β H475A). The cells were treated 24 hrs after transfection with the indicated ligands and harvested 48 hrs after transfection and firefly luciferase activity was measured and normalized to renilla luciferase. (D). […] HepG2 cells were transfected with 0.25 μg PPRE-LUC, 5 ng CMV-renilla LUC, 0.5 μg PGC-1 or vector backbone and 100 ng of the indicated receptors (PPAR-γ or PPAR-γ and wild type ER-β or PPAR-γ and ER-β H475A for top panels and PPAR-α or PPAR-α and ER-β for bottom panel). The cells were treated 24 hrs after transfection with the indicated ligands and harvested 48 hrs after transfection and firefly luciferase activity was measured and normalized to renilla luciferase. (E). SHP-1 is an ER-β specific target gene. HEK-293 cells were transfected with 0.25 μg SHP-LUC, 5 ng CMV-renilla LUC and 50 ng of the indicated receptors (FXR and ER-α for the left panel and FXR and ER-β for the right panel). The cells were treated 24 hrs after transfection with the indicated ligands and harvested 48 hrs after transfection and firefly luciferase activity was measured and normalized to renilla luciferase. […]

[3] = test system: high fat diet fed obese mice; assay: High fat diet induced obesity model, treatment study (study 3); format: in vivo, C57BL6 male mice; settings: high fat diet 6 weeks, then 30 mg/kg/day s.c.
Experimental: For the treatment obesity study (where the animals were fed with high fat diet for six weeks prior to beginning drug treatment for 18 weeks), MRI scans were performed at weeks 0, 6, 12, 18 and 24.
As the first two studies were designed to prevent obesity (i.e. animals were fed with a high fat diet and treated simultaneously), a subsequent study was conducted to evaluate the ability of 12u to affect body composition in mice that were already fed with the high fat diet and were obese. Mice were divided into three groups with one group fed with normal diet (control) and the other two groups fed with the high fat diet for 6 weeks. […] All the animals were maintained in their respective diets during the entire course of the study.

ER-α = ER-α (Rattus norvegicus (Rat), UniProt P06211); format: cell-based; settings: 100 nM NRBA compared to 1 nM estradiol
Method in brief: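 COS or 293 cells in phenol red-free medium with charcoal-stripped FBS, transfected with a 2×ERE firefly luciferase reporter, CMV-Renilla control and rat-cloned receptor. Compounds, estrogen or DHT added 24 h post transfection, alone or combined; firefly and Renilla luciferase read 48 h after transfection.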

C-26 colon cancer cells = assay: C-26 colon cancer cell proliferation (3H thymidine incorporation); format: cell-based; settings: treated for 3 days, FIG. 22
Experimental: The effects of treatment of an ER-β selective NRBA of this invention on cancer cell proliferation was examined using LNCaP prostate cancer cells and C-26 colon cancer cells. LNCaP or C-26 cells were plated in growth medium in 24 well and 6 well plates, respectively. LNCaP cells were treated for 6 days and C-26 cells were treated for 3 days at the indicated concentration. ^3H thymidine incorporation was measured at the end of treatment as an indicator of cell proliferation.

[4] = high fat diet, 30 mg/kg/day s.c., 12 weeks, FIG. 7
[5] = high fat diet, 30 mg/kg/day s.c., Study 2

SMILES: O=c1c2c(O)cc(O)cc2c(Br)cn1-c1ccc(O)cc1 [Compound 12u, 4-bromo-6,8-dihydroxy-2-(4-hydroxyphenyl)isoquinolin-1(2H)-one]
- body weight gain (ovariectomized mice; 9 weeks, FIG. 11A): did not inhibit body weight gain
- feed consumption (ovariectomized mice; FIG. 11B): increased the feed consumption
- fat mass (MRI) (ovariectomized mice; FIG. 11C left panel): completely prevented the increase in fat mass
- lean mass (MRI) (ovariectomized mice; FIG. 11C right panel): significantly increased lean mass
- WAT weight (ovariectomized mice; FIG. 11D): completely inhibited the WAT accrued due to OVX
- uterine weight (ovariectomized mice; FIG. 11D): without affecting uterine weight
- prevention of body weight increase caused by the high fat diet ([1]; 30 mg/kg/day s.c., 12 weeks, Study 2): more than 50%
- gastrocnemius muscle weight [1, 4]: increased gastrocnemius muscle weight
- white adipose tissue (WAT) weight [1, 4]: prevented the increase in the WAT weight; also recorded: comparably decreased WAT weight
- fat mass (MRI) [1, 5]: reduce fat mass
- lean mass (MRI) [1, 5]: increase muscle mass; also recorded: increased the lean mass
- prevention of the increase in body fat (MRI) [1, 5]: more than 50%
- testes weights ([1]; high fat diet, 12 weeks, FIG. 9A): not altered
- serum testosterone levels ([1]; high fat diet, 12 weeks, FIG. 9B): did not affect; also recorded: not altered
- serum follicle stimulating hormone (FSH) ([1]; high fat diet, 12 weeks, FIG. 9C): not altered
- adhesion of 3H labeled THP-1 cells to bEND-3 cells [2]: significantly inhibited the adhesion
- SHP activity (SHP promoter): neither of the ligands activated SHP
- body weight ([3]; FIG. 10A): prevented further gains in body weight
- body fat increase (MRI) ([3]; FIG. 10B): reduced
- Estradiol activity at 100 nM, ER-α (ER-α): 62%
- growth of C-26 colon cancer cells (C-26 colon cancer cells): significantly inhibited the growth
